Laboratory results as given in patent US9051322B2, “Process for the production of a pemetrexed salt” (SCINOPHARM TAIWAN, LTD., priority 2011, dated 2015).
Counter-ions that a name gives are not always drawn.

Test: Stability of pemetrexed disodium in sodium hydroxide at different temperature (impurity content by HPLC)
Assay type: physicochemical
Method: In comparison with the prior art, the embodiments of the present invention have the following advantages: • 1) The reaction of the compound of formula (II) or salt thereof with an aqueous basic solution is preferably conducted at a low temperature, e.g., no more than 10° C., in comparison with the room temperature of WO2001014379 and WO1999016742. As shown in Table 1 shown below, the inventors of the present invention unexpectedly discovered that impurities can be reduced or minimized by conducting the reaction at a low temperature. As noted above, after the reaction step, the low temperature is preferably maintained during the steps of adjusting pH and adding anti-solvent. • 2) The anti-solvent is preferably added before adjusting the pH value. The inventors unexpectedly discovered that by doing so, the mixture can be diluted by the addition of the anti-solvent before the adjusting step, therefore minimizing local heat effect and formation of impurities. In comparison, WO2001014379 discloses adjusting the pH value before the addition of an anti-solvent. • 3) In accordance with the present invention, the compound of formula (II) can be converted to a pemetrexed salt (e.g., at a pH of 6.5 to 9.5). In contrast, the process of WO1999016472 comprises making pemetrexed free form first (at a pH of about 3), and then converting the free form to a salt (at a pH of about 6.5 to 9.5). The process of the present invention is simpler and more convenient. • 4) In accordance with an embodiment of the present invention, the crude pemetrexed salt may be crystallized at a room temperature; whereas in accordance with WO2001014379, the crystallizing is conducted at about 70° C. The cooling, heating, and adjusting pH steps of WO2001014379 may be avoided in accordance with the embodiment of the present invention. The process of the present invention can save workup procedures and has better control of impurity.

Nc1nc2[nH]cc(CCc3ccc(C(=O)N[C@@H](CCC(=O)O)C(=O)O)cc3)c2c(=O)[nH]1 [pemetrexed disodium, L-Glutamic acid, N-[4-[2-(2-amino-4,7-dihydro-4-oxo-1H-pyrrolo[2,3-d]pyrimidin-5-yl)ethyl]benzoyl]-, disodium salt]
content of impurity based on HPLC spectra's % Area (5 °C, 1 hr): 0.012%
content of impurity based on HPLC spectra's % Area (5 °C, 2 hr): 0.013%
content of impurity based on HPLC spectra's % Area (5 °C, 4 h): 0.035%
content of impurity based on HPLC spectra's % Area (5 °C, 6 hr): 0.066%
content of impurity based on HPLC spectra's % Area (10 °C, 1 hr): 0.051%
content of impurity based on HPLC spectra's % Area (10 °C, 2 hr): 0.053%
content of impurity based on HPLC spectra's % Area (10 °C, 4 h): 0.070%
content of impurity based on HPLC spectra's % Area (10 °C, 6 hr): 0.075%
content of impurity based on HPLC spectra's % Area (15 °C, 1 hr): 0.076%
content of impurity based on HPLC spectra's % Area (15 °C, 2 hr): 0.085%
content of impurity based on HPLC spectra's % Area (15 °C, 4 h): 0.110%
content of impurity based on HPLC spectra's % Area (15 °C, 6 hr): 0.123%
